Test [1] addresses T1, porcine gastric H^+/K^+-ATPase (Sus scrofa, UniProt P19156).
T1 construct: prepared from mucous membrane in fresh porcine stomachs by homogenization; from tissue; host or cells: mucous membrane of fresh porcine stomachs (gastric vesicles, Ficoll/sucrose gradient)
As to the kind of experiment: Ion-tight porcine gastric H+/K+-ATPase inhibition. To be noted: ion-tight porcine gastric vesicles, 150 mM KCl, valinomycin, pH 7.4, 37° C., 30 minutes. Format: biochemical. As to the method:
The porcine gastric vesicles for Porcine gastric H^+/K^+-ATPase inhibition assays were prepared from mucous membrane in fresh porcine stomachs by homogenization with a tight-fitted polytetrafluoroethylene (Teflone®) homogenizer in 0.25 M sucrose at 4° C. The crude pellet was removed with centrifugation at 20,000 g for 30 min. Then supernatant was centrifuged at 100,000 g for 30 min. The resulting pellet was re-suspended in 0.25 M sucrose, and then subjected to density gradient centrifugation at 132,000 g for 90 min. The gastric vesicles were collected from interface on 0.25 M sucrose layer containing 7% Ficoll™ PM400(Amersham Biosciences). This procedure was performed in a cold room.
Ion-tight porcine gastric H^+/K^+-ATPase inhibition was measured according to the modified method described in Biochemical Pharmacology, 1988, 37, 2231-2236.
The isolated vesicles were kept in deep-freezer until use. For enzyme assay, vesicles were diluted with 3 mM MgSO4 containing 5 mM Tris (pH 7.4 at 37° C.).
Enzyme reaction was performed incubating 150 mM KCl, 3 mM Na2ATP, 3 mM MgSO4 15 μM valinomycin and 3.0 μg of vesicles for 30 minutes at 37° C. in a final 60 μl of reaction mixture (5 mM Tris, pH 7.4) with or without the test compound. Enzyme reaction was stopped by adding 10% SDS. Released inorganic phosphate from ATP was detected by incubating with mixture of 1 part of 35 mM ammonium molybdate tetrahydrate in 15 mM Zinc acetate hydrate and 4 parts of 10% ascorbic acid (pH 5.0), resulting in phosphomolybdate, which has optical density at 750 nm.

The subject of test [2] is gastric acid secretion. Put plainly: Inhibition of gastric acid secretion in the Heidenhain pouch dog. It counts as in vivo, Beagle dogs. The settings on record: histamine-stimulated acid secretion, maximum inhibition relative to control. As for the experimental part: Male Beagle dogs weighing 7-15 kg with Heidenhain pouch [Heidenhain R: Arch Ges Physiol. 1879, 19: 148-167] were used. The animals were allowed to recover from surgery for at least three weeks before the experiments. The animals were kept at a 12 hour light-dark rhythm, housed singly. They received standard food once daily at 11:00 a.m. and tap water ad libitum, and were fasted overnight prior to the experiment, with free access to water. Gastric juice samples were collected throughout the experiment by gravity drainage every 15 min. Acidity in the gastric juice was measured by titration to the end point of pH 7.0. Acid secretion was stimulated by a continuous intravenous infusion of histamine (80 μg/kg/h). Oral or intravenous bolus administration of the test compounds was done 90 minutes after commencement of the histamine infusion. The acid secretion was monitored after the administration. The activity was evaluated by the maximum inhibition relative to the corresponding control value.

T1 sequence (P19156 2-1034 limits assumed): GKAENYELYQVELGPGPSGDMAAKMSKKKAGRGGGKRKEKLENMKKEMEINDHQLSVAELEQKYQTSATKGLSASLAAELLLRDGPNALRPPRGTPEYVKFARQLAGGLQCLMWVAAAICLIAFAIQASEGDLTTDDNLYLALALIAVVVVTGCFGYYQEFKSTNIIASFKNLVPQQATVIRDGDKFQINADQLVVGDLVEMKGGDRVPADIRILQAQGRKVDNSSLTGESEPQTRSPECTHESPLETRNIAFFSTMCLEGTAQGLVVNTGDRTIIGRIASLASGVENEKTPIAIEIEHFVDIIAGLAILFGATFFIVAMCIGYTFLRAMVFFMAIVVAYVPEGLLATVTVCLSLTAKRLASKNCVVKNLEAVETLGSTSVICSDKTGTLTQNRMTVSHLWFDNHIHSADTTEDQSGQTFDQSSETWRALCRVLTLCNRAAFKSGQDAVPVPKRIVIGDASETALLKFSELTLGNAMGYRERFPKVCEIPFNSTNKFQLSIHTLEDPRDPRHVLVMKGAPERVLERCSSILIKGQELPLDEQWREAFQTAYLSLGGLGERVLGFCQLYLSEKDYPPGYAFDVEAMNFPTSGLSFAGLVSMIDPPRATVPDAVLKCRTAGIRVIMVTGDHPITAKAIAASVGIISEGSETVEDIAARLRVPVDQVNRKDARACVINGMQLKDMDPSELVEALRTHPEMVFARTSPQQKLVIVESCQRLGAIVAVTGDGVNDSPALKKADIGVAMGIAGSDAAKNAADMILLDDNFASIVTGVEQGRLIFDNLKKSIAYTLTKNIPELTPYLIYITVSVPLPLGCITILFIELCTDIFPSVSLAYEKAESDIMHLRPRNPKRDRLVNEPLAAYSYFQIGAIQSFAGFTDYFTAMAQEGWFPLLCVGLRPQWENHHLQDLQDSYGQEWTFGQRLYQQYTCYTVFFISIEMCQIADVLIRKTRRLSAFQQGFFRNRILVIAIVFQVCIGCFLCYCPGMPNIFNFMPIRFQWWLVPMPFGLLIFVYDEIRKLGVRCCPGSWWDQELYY
T1 sequence (P18434 whole entry partner): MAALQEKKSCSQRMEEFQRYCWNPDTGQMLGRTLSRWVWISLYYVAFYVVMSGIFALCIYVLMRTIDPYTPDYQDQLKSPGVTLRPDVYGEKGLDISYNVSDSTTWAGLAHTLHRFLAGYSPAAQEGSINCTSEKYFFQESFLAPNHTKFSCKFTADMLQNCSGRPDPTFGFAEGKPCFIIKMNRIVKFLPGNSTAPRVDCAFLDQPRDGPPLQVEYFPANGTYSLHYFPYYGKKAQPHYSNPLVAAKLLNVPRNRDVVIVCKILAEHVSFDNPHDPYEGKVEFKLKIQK

In turn, `Cc1nc2c(OC3CCOc4cc(F)cc(F)c43)cc(C(=O)N(C)C)cc2[nH]1` (racemic) [Example 1, 4-[(5,7-Difluoro-3,4-dihydro-2H-chromen-4-yl)oxy]-N,N,2-trimethyl-1H-benzimidazole-6-carboxamide] returned an IC50 in test [1] of 190 nM. Turning to `Cc1nc2c(OC3CCOc4cc(F)cc(F)c43)cc(C(=O)N(C)CCO)cc2[nH]1` (centres unmarked) [Example 7, 4-[(5,7-Difluoro-3,4-dihydro-2H-chromen-4-yl)oxy]-N-(2-hydroxyethyl)-N,2-dimethyl-1H-benzimidazole-6-carboxamide], in test [1], the half-maximal inhibitory concentration (IC50) stood at 1100 nM. `Cc1nc2c(OC3CCOc4cc(F)cc(F)c43)cc(C(=O)N3CCC3)cc2[nH]1` (single isomer, unassigned; (-)) [Example 22, (−)-6-(Azetidin-1-ylcarbonyl)-4-[(5,7-difluoro-3,4-dihydro-2H-chromen-4-yl)oxy]-2-methyl-1H-benzimidazole] registered an IC50 in test [1] of 570 nM. Same read-out and setting: for `CNC(=O)c1cc(OC2CCOc3cccc(C)c32)c2nc(C)[nH]c2c1` (centres unmarked) [Example 19, N,2-Dimethyl-4-[(5-methyl-3,4-dihydro-2H-chromen-4-yl)oxy]-1H-benzimidazole-6-carboxamide] the value was 240 nM; for `Cc1nc2c(OC3CCOc4c(F)ccc(C)c43)cc(C(=O)N(C)C)cc2[nH]1` (centres unmarked) [Example 13, 4-[(8-Fluoro-5-methyl-3,4-dihydro-2H-chromen-4-yl)oxy]-N,N,2-trimethyl-1H-benzimidazole-6-carboxamide], 130 nM.

In test [1], `Cc1nc2c(OC3CCOc4c(F)ccc(F)c43)cc(C(=O)N(C)C)cc2[nH]1` (centres unmarked) [Example 14, 4-[(5,8-Difluoro-3,4-dihydro-2H-chromen-4-yl)oxy]-N,N,2-trimethyl-1H-benzimidazole-6-carboxamide] came in with an IC50 of 220 nM. On the same count and under the same terms, under `Cc1nc2c(OC3CCSc4ccccc43)cc(C(=O)N(C)C)cc2[nH]1` (centres unmarked) [Example 25, 4-(3,4-Dihydro-2H-thiochromen-4-yloxy)-N,N,2-trimethyl-1H-benzimidazole-6-carboxamide] stands 160 nM; under `Cc1nc2c(OC3CCOc4cc(F)cc(F)c43)cc(C(=O)N3CCCC3)cc2[nH]1` (single isomer, unassigned; (+)) [Example 5, (+)-4-[(5,7-Difluoro-3,4-dihydro-2H-chromen-4-yl)oxy]-2-methyl-6-(pyrrolidin-1-ylcarbonyl)-1H-benzimidazole], 32 nM.

For the compound `Cc1nc2c(OC3CCOc4cc(F)cc(C)c43)cc(C(=O)N(C)C)cc2[nH]1` (centres unmarked) [Example 21, 4-[(7-Fluoro-5-methyl-3,4-dihydro-2H-chromen-4-yl)oxy]-N,N,2-trimethyl-1H-benzimidazole-6-carboxamide], 82 nM corresponded to half-maximal inhibition in test [1] (IC50). Consider `Cc1nc2c(OC3CCOc4cccc(F)c43)cc(C(=O)N(C)C)cc2[nH]1` (single isomer, unassigned; (-)) [Example 10, (−)-4-[(5-Fluoro-3,4-dihydro-2H-chromen-4-yl)oxy]-N,N,2-trimethyl-1H-benzimidazole-6-carboxamide], for which the IC50 in test [1] came to 140 nM. In the case of `CCc1nc2c(OC3CCOc4cc(F)cc(F)c43)cc(C(=O)N(C)C)cc2[nH]1` (centres unmarked) [Example 15, 4-[(5,7-Difluoro-3,4-dihydro-2H-chromen-4-yl)oxy]-2-ethyl-N,N-dimethyl-1H-benzimidazole-6-carboxamide], in test [1], half-maximal inhibition (IC50) was put at 210 nM. The same measure, in the same setting: under `Cc1nc2c(OC3CCOc4cc(F)cc(F)c43)cc(C(=O)N3CCCC3)cc2[nH]1` (single isomer, unassigned; (-)) [Example 6, (−)-4-[(5,7-Difluoro-3,4-dihydro-2H-chromen-4-yl)oxy]-2-methyl-6-(pyrrolidin-1-ylcarbonyl)-1H-benzimidazole] stands 30 nM. Still for that read-out and setting: under `Cc1nc2c(OC3CCOc4cc(F)cc(F)c43)cc(C(=O)N(C)CCN(C)C)cc2[nH]1` (centres unmarked) [Example 8, 4-[(5,7-Difluoro-3,4-dihydro-2H-chromen-4-yl)oxy]-N-[2-(dimethylamino)ethyl]-N,2-dimethyl-1H-benzimidazole-6-carboxamide] stands 610 nM; under `CCN(C)C(=O)c1cc(O[C@H]2CCOc3cc(F)cc(F)c32)c2nc(C)[nH]c2c1` [Example 23, (−)-4-[(5,7-Difluoro-3,4-dihydro-2H-chromen-4-yl)oxy]-N-ethyl-N,2-dimethyl-1H-benzimidazole-6-carboxamide], 110 nM. The same measure, in the same setting: under `Cc1nc2c(OC3CCOc4ccccc43)cc(C(=O)N(C)C)cc2[nH]1` (centres unmarked) [Example 12, 4-(3,4-Dihydro-2H-chromen-4-yloxy)-N,N,2-tri methyl-1H-benzimidazole-6-carboxamide] stands 230 nM; under `Cc1nc2c(OC3CCOc4cccc(F)c43)cc(C(=O)N(C)C)cc2[nH]1` (racemic) [Example 9, 4-[(5-Fluoro-3,4-dihydro-2H-chromen-4-yl)oxy]-N,N,2-trimethyl-1H-benzimidazole-6-carboxamide], 130 nM.

As to `Cc1nc2c(OC3CCOc4cccc(F)c43)cc(C(=O)N(C)C)cc2[nH]1` (single isomer, unassigned; (+)) [Example 11, (+)-4-[(5-Fluoro-3,4-dihydro-2H-chromen-4-yl)oxy]-N,N,2-trimethyl-1H-benzimidazole-6-carboxamide], the 50% inhibitory concentration (IC50) in test [1] amounted to 120 nM.

On to `Cc1nc2c(OC3CCOc4cccc(C)c43)cc(C(=O)N(C)C)cc2[nH]1` (centres unmarked) [Example 16, N,N,2-Trimethyl-4-[(5-methyl-3,4-dihydro-2H-chromen-4-yl)oxy]-1H-benzimidazole-6-carboxamide], for which, in test [1], inhibition was half-maximal at 68 nM (IC50). Still for that read-out and setting: for `Cc1nc2c(OC3CCOc4cc(F)cc(F)c43)cc(C(=O)N3CCCC3)cc2[nH]1` (racemic) [Example 4, 4-[(5,7-Difluoro-3,4-dihydro-2H-chromen-4-yl)oxy]-2-methyl-6-(pyrrolidin-1-ylcarbonyl)-1H-benzimidazole] the value was 58 nM; for `Cc1nc2c(O[C@H]3CCOc4cc(F)cc(F)c43)cc(C(=O)N3CCOCC3)cc2[nH]1` [Example 24, (−)-4-[(5,7-Difluoro-3,4-dihydro-2H-chromen-4-yl)oxy]-2-methyl-6-(morpholin-4-ylcarbonyl)-1H-benzimidazole], 370 nM; for `Cc1nc2c(OC3CCOc4cccc(C)c43)cc(C(=O)N(C)C)cc2[nH]1` (single isomer, unassigned; (-)) [Example 17, (−)-N,N,2-Trimethyl-4-[(5-methyl-3,4-dihydro-2H-chromen-4-yl)oxy]-1H-benzimidazole-6-carboxamide], 99 nM. On the same count and under the same terms, for `Cc1nc2c(O[C@@H]3CCOc4cc(F)cc(F)c43)cc(C(=O)N(C)C)cc2[nH]1` (single isomer, unassigned) [Example 3] the value was 98 nM. Still for that read-out and setting: for `Cc1nc2c(OC3CCOc4cccc(C)c43)cc(C(=O)N(C)C)cc2[nH]1` (single isomer, unassigned; (+)) [Example 18, (+)-N,N,2-Trimethyl-4-[(5-methyl-3,4-dihydro-2H-chromen-4-yl)oxy]-1H-benzimidazole-6-carboxamide] the value was 130 nM. `Cc1nc2c(OC3CCOc4cccc(C)c43)cc(C(=O)N3CCCC3)cc2[nH]1` (centres unmarked) [Example 20, 2-Methyl-4-[(5-methyl-3,4-dihydro-2H-chromen-4-yl)oxy]-6-(pyrrolidin-1-ylcarbonyl)-1H-benzimidazole] displayed an IC50 in test [1] of 71 nM.

`Cc1nc2c(O[C@H]3CCOc4cc(F)cc(F)c43)cc(C(=O)N(C)C)cc2[nH]1` (single isomer, unassigned) [Example 2] had an IC50 in test [1] of 86 nM. Besides, the “inhibitory activity (gastric acid secretion)” value in test [2] was “good inhibitory activity”.

Broadly, the IC50 is the concentration that gives 50% inhibition. Higher therefore signals weaker potency in that assay.

Source of the values: patent US7723321B2, “Chromane substituted benzimidazole derivatives” (RaQualia Pharma Inc., priority 2005, dated 2010).
